One data set deals with AMO-1. Briefly: Antiproliferation assay (Assay 7), AMO-1. The following applies: CellTiter-Glo, several values per example, read-out: Antiproli AMO-1 [M] IC50. Format: cell-based. In a few lines: (§1)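 CellTiter-Glo luminescence readout; 72 h compound exposure, 37° C, humidified. Day 0 reference plate read at plating for time-zero baseline.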
Data set [1] deals with SUDHL5. Briefly: Induction of cytotoxicity (Assay 6), SUDHL5. The following applies: read-out: Cytotox SUDHL5 [M] (median) IC50, CellTiter-Glo, 5 hours, SUDHL5.
In a further data set the target is BCL-2 (Homo sapiens (Human), UniProt P10415). Briefly: Protein-protein interaction assay BCL-2/Bad BH3 peptide (BCL-2 assay, TR-FRET). The note with it: His-BCL-2 / Bad BH3 peptide, median. Format: binding. The essentials:
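His-BCL-2 (1-211, E. coli) at 1 nM preincubated 10 min at 22 °C with compound (11 concentrations, 0.1 nM-20 μM, duplicates), then 1 nM biotinylated Bad BH3 peptide added. After 1 h at 22 °C plus overnight at 4 °C, TR-FRET 665/620 ratio normalised to DMSO and no-BCL-2 controls, IC50 from 4-parameter fit.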

In data set [2] the test system is SUDHL5. Briefly: Antiproliferation assay (Assay 7), SUDHL5. Format: cell-based. The following applies: CellTiter-Glo, median, read-out: Antiproli SUDHL5 [M] (median) IC50. In a few lines:
as §1

Values joined by “and” are separate entries in the source; they are usually repeats but may differ in a detail not shown here. Equal entries are not always repeated. Structures can show the parent of a compound that is named as a salt. Where two headings read alike, the source gives them in different places. Some results are limits rather than exact numbers.

Sequence of BCL-2 (P10415 other isoform, or with tags, fused parts or gaps): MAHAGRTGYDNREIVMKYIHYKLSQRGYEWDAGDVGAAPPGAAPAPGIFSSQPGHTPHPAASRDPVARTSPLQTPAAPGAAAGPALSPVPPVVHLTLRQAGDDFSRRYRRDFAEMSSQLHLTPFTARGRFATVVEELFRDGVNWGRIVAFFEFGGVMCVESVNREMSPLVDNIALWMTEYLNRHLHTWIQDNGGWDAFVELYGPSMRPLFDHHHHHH

Take `Cc1c2c(nn1C)C(CCN1CCOCC1)N(C)S(=O)(=O)CCCn1c(C(=O)O)c(CCCOc3cccc4cc(F)ccc34)c3ccc(Cl)c-2c31` (racemic) [Example 65, (rac)-4-chloro-7-{3-[(6-fluoronaphthalen-1-yl)oxy]propyl}-2,3,14-trimethyl-15-(rac)-[2-(morpholin-4-yl)ethyl]-13,13-dioxo-10,11,12,13,14,15-hexahydro-2H-13lambda^6-pyrazolo[3′,4′:4,5][1,2,8]thiadiazacycloundecino[6,7,8-hi]indole-8-carboxylic acid (Mixture of Stereoisomers)]: the IC50 in the data set with AMO-1 (72 hours) is 7.1e-08 M; with SUDHL5 [1], 5.8e-08 M; on BCL-2 it was greater than 20000 nM; with SUDHL5 [2] (72 hours) it was 6e-08 M.

In the case of `CCc1c2c(nn1C)CN(C)S(=O)(=O)CCCn1c(C(=O)O)c(CCCOc3cccc4ccccc34)c3ccc(F)c-2c31` (racemic) [Example 31, (rac)-12-Ethyl-13-fluoro-8,11-dimethyl-1-(3-(naphthalen-1-yloxy)propyl)-5,6,9,11-tetrahydro-4H,8H-pyrazolo[3′,4′:4,5][1]thia[2,8]diazacycloundecino[6,7,8-hi]indole-2-carboxylic acid 7,7-dioxide], the IC50 in the data set on AMO-1 (72 hours) was 3.9e-06 M; with AMO-1 (Homo sapiens, AMO1, 72 h), 4.2e-06 M; in the data set with SUDHL5 [1] (Homo sapiens, SU-DHL-5, 5 h) it was 9.3e-07 M; at BCL-2, greater than 20000 nM; in the data set with SUDHL5 [2] (Homo sapiens, SU-DHL-5, 72 h), 5.3e-07 M.

Turning to `Cc1c2c(nn1C)CN(C1CC1)S(=O)(=O)CCCn1c(C(=O)O)c(CCCOc3cccc4cc(F)ccc34)c3ccc(Cl)c-2c31` (single isomer, unassigned; enantiomer 1) [Example 42, (−)-4-chloro-14-cyclopropyl-7-{3-[(6-fluoro-1-naphthyl)oxy]propyl}-2,3-dimethyl-11,12,14,15-tetrahydro-2H,10H-pyrazolo[3′,4′:4,5][1,2,8]thiadiazacycloundecino[6,7,8-hi]indole-8-carboxylic acid 13,13-dioxide N-diethylamine salt (Enantiomer 1)], the IC50 with AMO-1 (72 hours) is 2.6e-07 M and 4.7e-07 M; in the data set with SUDHL5 [1], 3e-07 M; against BCL-2, 12000 nM; in the data set with SUDHL5 [2] (72 hours), 2.7e-07 M.

For the compound `CCc1c2c(nn1C)C(CCC1CCOCC1)N(C)S(=O)(=O)CCCn1c(C(=O)O)c(CCCOc3cccc4cc(F)ccc34)c3ccc(Cl)c-2c31` (single isomer, unassigned; enantiomer 4) [Example 64, (−)-4-chloro-3-ethyl-7-{3-[(6-fluoronaphthalen-1-yl)oxy]propyl}-2,14-dimethyl-15-[2-(oxan-4-yl)ethyl]-13,13-dioxo-10,11,12,13,14,15-hexahydro-2H-13lambda^6-pyrazolo[3′,4′:4,5][1,2,8]thiadiazacycloundecino[6,7,8-hi]indole-8-carboxylic acid (Enantiomer 4)], the IC50 in the data set on AMO-1 (72 hours) was 1e-06 M; in the data set with SUDHL5 [1], 1.2e-06 M; against BCL-2 it was greater than 20000 nM; in the data set with SUDHL5 [2] (72 hours), 1.4e-06 M.

Consider `CCc1c2c(nn1C)CN(C)S(=O)(=O)CCCn1c(C(=O)O)c(CCCOc3cccc4c3CCCC4)c3ccc(Cl)c-2c31` [Example 23, (rac)-13-Chloro-12-ethyl-8,11-dimethyl-1-(3-((5,6,7,8-tetrahydronaphthalen-1-yl)oxy)propyl)-4,5,6,8,9,11-hexahydropyrazolo[3′,4′:4,5][1,2,8]thiadiazacycloundecino[6,7,8-hi]indole-2-carboxylic acid 7,7-dioxide], for which the IC50 in the data set with AMO-1 (Homo sapiens, AMO1, 72 h) came to 3.8e-06 M; in the data set on SUDHL5 [1] (Homo sapiens, SU-DHL-5, 5 h), 1.7e-06 M; against BCL-2, 15000 nM; in the data set with SUDHL5 [2] (Homo sapiens, SU-DHL-5, 72 h), 6.9e-07 M.

With `CCc1c2c(nn1C)CN(CCN1CCCCC1)S(=O)(=O)CCCn1c(C(=O)O)c(CCCOc3cccc4ccccc34)c3cccc-2c31` (racemic) [Example 14, (rac)-12-Ethyl-11-methyl-1-(3-(naphthalen-1-yloxy)propyl)-8-(2-(piperidin-1-yl)ethyl)-4,5,6,8,9,11-hexahydropyrazolo[3′,4′:4,5][1,2,8]thiadiazacycloundecino[6,7,8-hi]indole-2-carboxylic acid 7,7-dioxide 2,2,2-trifluoroacetic acid salt], the IC50 in the data set on AMO-1 (72 hours) was 1.7e-05 M; in the data set on AMO-1 (Homo sapiens, AMO1, 72 h), 1.9e-05 M; in the data set with SUDHL5 [1] (Homo sapiens, SU-DHL-5, 5 h), 5.2e-06 M; at BCL-2, greater than 20000 nM; in the data set on SUDHL5 [2] (Homo sapiens, SU-DHL-5, 72 h), 3.3e-06 M.

As for `Cc1c2c(nn1C)C(CCN1CCOCC1)N(C)S(=O)(=O)CCCn1c(C(=O)O)c(CCCOc3cccc4ccccc34)c3cccc-2c31` (racemic) [Example 44, (rac)-2,3,14-trimethyl-15-[2-(rac)-(morpholin-4-yl)ethyl]-7-[3-(1-naphthyloxy)propyl]-11,12,14,15-tetrahydro-2H,10H-pyrazolo[3′,4′:4,5][1,2,8]thiadiazacycloundecino[6,7,8-hi]indole-8-carboxylic acid 13,13-dioxide (Mixture of Stereoisomers)], the IC50 is 4.4e-06 M in the data set with AMO-1 (Homo sapiens, AMO1, 72 h); 1.3e-06 M with SUDHL5 [1] (Homo sapiens, SU-DHL-5, 5 h); greater than 20000 nM against BCL-2; 9.2e-07 M in the data set on SUDHL5 [2] (Homo sapiens, SU-DHL-5, 72 h).

As to `CCc1c2c(nn1C)C(CCC1CCOCC1)N(C)S(=O)(=O)CCCn1c(C(=O)O)c(CCCOc3cccc4cc(F)ccc34)c3ccc(Cl)c-2c31` (single isomer, unassigned; enantiomer 1) [Example 61, (+)-4-chloro-3-ethyl-7-{3-[(6-fluoronaphthalen-1-yl)oxy]propyl}-2,14-dimethyl-15-[2-(oxan-4-yl)ethyl]-13,13-dioxo-10,11,12,13,14,15-hexahydro-2H-13lambda^6-pyrazolo[3′,4′:4,5][1,2,8]thiadiazacycloundecino[6,7,8-hi]indole-8-carboxylic acid (Enantiomer 1)], the IC50 in the data set with AMO-1 (72 hours) is 2.5e-08 M and 2.8e-08 M; in the data set on SUDHL5 [1], 2.8e-08 M; against BCL-2, 16000 nM; in the data set with SUDHL5 [2] (72 hours) it was 3.9e-08 M.

On to `CCc1c2c(nn1C)CN(C)S(=O)(=O)CCCn1c(C(=O)O)c(CCCOc3cccc4ccccc34)c3ccc(Cl)c-2c31` [Example 20, (rac)-13-Chloro-12-ethyl-8,11-dimethyl-1-(3-(naphthalen-1-yloxy)propyl)-5,6,9,11-tetrahydro-4H,8H-pyrazolo[3′,4′:4,5][1]thia[2,8]diazacycloundecino[6,7,8-hi]indole-2-carboxylic acid 7,7-dioxide], for which the half-maximal inhibitory concentration (IC50) is 2.8e-06 M with AMO-1 (Homo sapiens, AMO1, 72 h); 9.1e-07 M in the data set on SUDHL5 [1] (Homo sapiens, SU-DHL-5, 5 h); greater than 20000 nM at BCL-2; 5.2e-07 M in the data set with SUDHL5 [2] (Homo sapiens, SU-DHL-5, 72 h).

For the compound `CCc1c2c(nn1C)CN(C)S(=O)(=O)CCCn1c(C(=O)O)c(CCCOc3cccc4cc(F)ccc34)c3ccc(Cl)c-2c31` (single isomer, unassigned; enantiomer 2) [Example 37, (−)-4-chloro-3-ethyl-7-{3-[(6-fluoronaphthalen-1-yl)oxy]propyl}-2,14-dimethyl-13,13-dioxo-10,11,12,13,14,15-hexahydro-2H-13lambda^6-pyrazolo[3′,4′:4,5][1,2,8]thiadiazacycloundecino-[6,7,8-hi]indole-8-carboxylic acid (Enantiomer 2)], the IC50 in the data set on AMO-1 (72 hours) came to 2.8e-05 M; in the data set on SUDHL5 [1] it was 5.7e-06 M; at BCL-2, 20000 nM; in the data set on SUDHL5 [2] (72 hours), 2.2e-06 M.

Values taken from patent US11401278B2, “Macrocyclic indole derivatives” (The Broad Institute, Inc., priority 2017, dated 2022).
